The record followed here is patent publication US20060045953A1 (priority 2004, published 2006).

Series [1] deals with T1, hT1R1/hT1R3 umami receptor (Homo sapiens, UniProt Q7RTX0+Q7RTX1).
T1 construct: expressed in transfected cells; host or cells: HEK293 derivative stably expressing Gα15, clone I-17, expression induced with mifepristone
T1 sequence (Q7RTX1 21-841): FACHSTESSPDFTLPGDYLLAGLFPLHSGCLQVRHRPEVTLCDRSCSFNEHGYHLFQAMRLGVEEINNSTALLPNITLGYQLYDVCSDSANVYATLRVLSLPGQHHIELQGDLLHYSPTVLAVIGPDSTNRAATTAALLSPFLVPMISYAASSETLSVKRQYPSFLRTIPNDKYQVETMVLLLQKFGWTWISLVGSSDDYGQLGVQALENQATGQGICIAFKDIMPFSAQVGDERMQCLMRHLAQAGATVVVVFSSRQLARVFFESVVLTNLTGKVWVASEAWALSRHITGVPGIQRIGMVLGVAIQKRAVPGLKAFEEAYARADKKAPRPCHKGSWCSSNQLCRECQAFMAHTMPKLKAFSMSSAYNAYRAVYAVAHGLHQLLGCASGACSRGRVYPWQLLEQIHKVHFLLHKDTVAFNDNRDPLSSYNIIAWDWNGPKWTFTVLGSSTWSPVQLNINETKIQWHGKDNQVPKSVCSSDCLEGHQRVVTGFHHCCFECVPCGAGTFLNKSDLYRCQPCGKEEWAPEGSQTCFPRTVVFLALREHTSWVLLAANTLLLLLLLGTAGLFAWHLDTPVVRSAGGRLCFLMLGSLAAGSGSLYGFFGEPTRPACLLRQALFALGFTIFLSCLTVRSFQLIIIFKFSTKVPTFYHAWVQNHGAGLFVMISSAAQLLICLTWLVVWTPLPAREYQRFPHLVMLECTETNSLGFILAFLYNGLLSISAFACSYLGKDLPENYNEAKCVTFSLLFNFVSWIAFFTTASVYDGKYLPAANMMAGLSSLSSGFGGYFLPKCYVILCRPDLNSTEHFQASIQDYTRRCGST
T1 sequence (Q7RTX0 21-852): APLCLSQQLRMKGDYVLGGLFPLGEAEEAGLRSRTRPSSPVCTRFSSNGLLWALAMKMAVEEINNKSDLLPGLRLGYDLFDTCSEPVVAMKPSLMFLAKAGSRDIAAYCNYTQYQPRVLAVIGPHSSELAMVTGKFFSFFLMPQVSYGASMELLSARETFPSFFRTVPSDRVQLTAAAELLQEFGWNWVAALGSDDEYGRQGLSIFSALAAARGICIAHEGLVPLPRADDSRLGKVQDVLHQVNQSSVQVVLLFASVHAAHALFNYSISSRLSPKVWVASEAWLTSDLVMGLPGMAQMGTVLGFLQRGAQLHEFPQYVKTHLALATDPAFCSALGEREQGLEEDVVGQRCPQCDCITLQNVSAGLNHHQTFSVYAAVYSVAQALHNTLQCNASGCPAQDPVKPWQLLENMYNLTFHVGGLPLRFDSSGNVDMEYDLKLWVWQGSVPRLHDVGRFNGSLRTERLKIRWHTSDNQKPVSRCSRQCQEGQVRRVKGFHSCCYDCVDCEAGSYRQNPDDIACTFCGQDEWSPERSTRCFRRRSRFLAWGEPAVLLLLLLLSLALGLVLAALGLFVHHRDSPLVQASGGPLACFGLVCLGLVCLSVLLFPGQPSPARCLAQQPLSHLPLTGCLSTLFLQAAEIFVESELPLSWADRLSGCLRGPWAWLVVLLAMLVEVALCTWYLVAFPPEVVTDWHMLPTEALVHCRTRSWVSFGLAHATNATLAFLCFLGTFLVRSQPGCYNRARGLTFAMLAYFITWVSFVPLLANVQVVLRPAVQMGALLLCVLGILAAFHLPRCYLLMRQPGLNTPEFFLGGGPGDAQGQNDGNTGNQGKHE
Nature of the series: In vitro hT1R1/hT1R3 umami taste receptor activation assay (FLIPR, dose response). The class given is cell-based. The note with it: read-out: EC50 for activation of a hT1R1/hT1R3 umami receptor expressed in an HEK293 cell line.

In a further series the test system is human panelists. In words: Umami/savory flavor experiments using human panelists (trained panel, difference from reference). Particulars: savory taste; for Taste Data: concentration of cpd that with 12 mM MSG is as strong as 12 mM MSG + 100 μM IMP: aqueous solution with 12 mM MSG; for Taste Data: concentration of cpd (alone) as strong as 12 mM MSG: without MSG. It is filed as in vivo. The method, then:
General Panelist Selection: Basic screening of sensory taste testers: Potential panelists were tested for their abilities to rank and rate intensities of solutions representing the five basic tastes. Panelists ranked and rated intensity of five different concentrations of each of the five following compounds: sucrose (sweet), sodium chloride (salty), citric acid (sour), caffeine (bitter), and monosodium glutamate (savory). In order to be selected for participation in testing, panelists needed to correctly rank and rate samples for intensity, with a reasonable number of errors. […]
Trained Panelist Selection: A trained expert panel was used to further evaluate compounds that had been tested with the preliminary taste test.
Panelists for the trained panel were selected from the larger group of qualifying taste panelists. Panelists were further trained on savory taste by ranking and rating experiments using MSG and IMP combinations. Panelists completed a series of ranking, rating, and difference from reference tests with savory solutions. In ranking and rating experiments, panelists evaluated easy MSG concentrations (0, 6, 18, 36 mM) and more difficult MSG concentrations (3, 6, 12, 18 mM MSG) in water.
Compound testing with Trained Panel: Compounds tested by the trained panel were evaluated in difference from reference experiments. […] Test samples were solutions with varying amounts of MSG, IMP, and the compound. Typically, each session compares the reference sample to numerous test samples. […] Compounds were tested against the reference in samples with and without 12 mM MSG. All samples were presented in 10 ml volumes at room temperature. Two sessions were completed for each compound tested to evaluate panel reproducibility.

The target of series [2] is T2, hT1R2/hT1R3 sweet receptor (Homo sapiens, UniProt Q7RTX0+Q8TE23).
T2 construct: expressed in transfected cells; host or cells: HEK293 derivative stably expressing Gα15, clone S-9
T2 sequence (Q8TE23 20-839): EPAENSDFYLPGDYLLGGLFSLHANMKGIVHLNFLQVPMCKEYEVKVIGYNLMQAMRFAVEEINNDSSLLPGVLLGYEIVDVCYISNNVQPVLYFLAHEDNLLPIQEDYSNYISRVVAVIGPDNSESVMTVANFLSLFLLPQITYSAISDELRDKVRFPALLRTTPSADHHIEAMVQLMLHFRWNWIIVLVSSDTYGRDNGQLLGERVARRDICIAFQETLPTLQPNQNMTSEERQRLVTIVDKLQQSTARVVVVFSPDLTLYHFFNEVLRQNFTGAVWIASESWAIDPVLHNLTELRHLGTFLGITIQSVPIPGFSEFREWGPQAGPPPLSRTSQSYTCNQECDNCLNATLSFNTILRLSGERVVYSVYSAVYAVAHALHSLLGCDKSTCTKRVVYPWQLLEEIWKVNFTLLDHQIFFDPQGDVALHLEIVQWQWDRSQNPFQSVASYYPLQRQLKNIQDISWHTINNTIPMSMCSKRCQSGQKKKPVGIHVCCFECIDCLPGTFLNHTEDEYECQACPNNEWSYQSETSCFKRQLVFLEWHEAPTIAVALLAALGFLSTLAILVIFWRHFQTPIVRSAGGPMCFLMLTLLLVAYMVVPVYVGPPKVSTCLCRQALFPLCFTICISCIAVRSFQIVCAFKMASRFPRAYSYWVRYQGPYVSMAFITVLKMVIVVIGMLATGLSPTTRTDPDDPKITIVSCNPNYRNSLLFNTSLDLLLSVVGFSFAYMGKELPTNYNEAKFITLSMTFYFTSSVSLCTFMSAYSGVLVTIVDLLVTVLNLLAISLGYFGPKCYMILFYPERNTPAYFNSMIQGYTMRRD
T2 sequence (Q7RTX0 21-852): T1 sequence (Q7RTX0 21-852)
In words: In vitro hT1R2/hT1R3 sweet taste receptor activation assay (FLIPR, dose response). The class given is cell-based. Particulars: read-out: EC50 for activation of a hT1R2/hT1R3 sweet receptor expressed in an HEK293 cell line. In outline:
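S-9 cells expressing hT1R2/hT1R3, loaded with 4 µM Fluo-3AM 1 h at room temperature. Calcium response on FLIPR at room temperature in D-PBS, with 10 concentrations from 60 nM to 30 µM in duplicate.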

SMILES strings stand for the structures.

In general, melting point refers to the temperature, or range, at which the solid turns liquid.

For the compound `COc1ccc(C(=O)N[C@H]2CCc3ccccc32)cc1C` [Example 121-1, (S)-N-(2,3-Dihydro-1H-inden-1-yl)-4-methoxy-3-methylbenzamide], in series [1], the EC50 came out at 0.08 µM. For the same compound, in the series on human panelists, the “Taste Data: concentration of cpd that with 12 mM MSG is as strong as 12 mM MSG + 100 μM IMP” value (“Taste Data: concentration of cpd that” for short) is on record as 12 mM MSG + 1 μM cpd as strong as and the “Taste Data: concentration of cpd (alone) as strong as 12 mM MSG” value (shortened to “Taste Data: concentration of cpd (alone)”) is 1 μM cpd as strong as 12 mM MSG.
Regarding `COC[C@@H](CC(C)C)NC(=O)c1ccc(C)c(C)c1` [Example 71, (R)-N-(1-methoxy-4-methylpentan-2-yl)-3,4-dimethylbenzamide], in series [1], the EC50 turned out to be 0.2 µM. Further, in the series on human panelists, the “Taste Data: concentration of cpd that” value is recorded as 12 mM MSG + 3 μM cpd as strong as.
The matching figures for `COC(=O)[C@@H](CC(C)C)NC(=O)c1ccc2c(c1)OCO2` [Example 6, (R)-methyl 2-(benzo[d][1,3]dioxole-6-carboxamido)-4-methylpentanoate]: 0.34 µM and 12 mM MSG + 10 μM cpd as strong as.
For `COC[C@@H](CC(C)C)NC(=O)c1ccc(OC)c(C)c1` [Example 104, 4-Methoxy-N-(1-methoxymethyl-3-methyl-butyl)-3-methyl-benzamide], the EC50 in series [1] is 0.24 µM. Moreover, the “Taste Data: concentration of cpd that” value in the series with human panelists is given as 12 mM MSG + 3 μM cpd as strong as.
On to `COc1cc(C)ccc1CNC(=O)C(=O)NCCc1ccc(C)cn1` [Example 157, N^1-(2-methoxy-4-methylbenzyl)-N^2-(2-(5-methylpyridin-2-yl)ethyl)oxalamide], for which the melting point is 133.5 to 134 °C. Besides, the EC50 in series [1] was 0.03 µM. In the series with human panelists, the “Taste Data: concentration of cpd that” value is reported as 12 mM MSG + 0.3 μM cpd as strong and the “Taste Data: concentration of cpd (alone)” value is given as 0.3 μM cpd as strong as 12 mM MSG.
For the compound `CCCC(CCC)NC(=O)c1ccc2c(c1)OCO2` [Example 1, N-(heptan-4-yl)benzo[d][1,3]dioxole-5-carboxamide], the EC50 in series [1] stood at 0.2 µM. The “Taste Data: concentration of cpd that” value in the series on human panelists is 12 mM MSG + 3 μM cpd as strong as.
With `COc1ccc(CNC(=O)C(=O)NCCc2ccccn2)c(OC)c1` [Example 123, N-(2,4-Dimethoxy-benzyl)-N′-(2-pyridin-2-yl-ethyl)-oxalamide], the EC50 in series [1] was determined as 0.09 µM. Moreover, in the series with human panelists, the “Taste Data: concentration of cpd that” value is 12 mM MSG + 1 μM cpd as strong as and the “Taste Data: concentration of cpd (alone)” value is given as 1 μM cpd as strong as 12 mM MSG.
`COc1cc(C)ccc1CNC(=O)C(=O)NCCc1ccccn1` [Example 132, N-(2-methoxy-4-methylbenzyl)-N′-(2-(pyridin-2-yl)ethyl)oxalamide] returned a melting point of 128 to 131 °C. Besides, the EC50 in series [1] came to 0.04 µM. In the series on human panelists, the “Taste Data: concentration of cpd that” value is 12 mM MSG + 1 μM cpd as strong as and the “Taste Data: concentration of cpd (alone)” value is on record as 1 μM cpd as strong as 12 mM MSG.
For the compound `COC(=O)[C@@H](CC(C)C)NC(=O)c1cc(C)c(C)o1` [Example 98, (R)-methyl 2-(2,3-dimethylfuran-5-carboxamido)-4-methylpentanoate], the EC50 in series [1] is 0.59 µM. The “Taste Data: concentration of cpd that” value in the series on human panelists is 12 mM MSG + 10 μM cpd as strong as.
As for `Cc1c(F)c(F)c(C(=O)NC(C(C)C)C(C)C)c(F)c1F` [Example 165, N-(2,4-dimethylpentan-3-yl)-2,3,5,6-tetrafluoro-4-methylbenzamide], the melting point was in the range of 184 to 187 °C. The EC50 in series [2] came to 0.81 µM.
The compound `COc1ccc2c(c1)CCC[C@H]2NC(=O)c1cccc(Cl)c1O` [Example 183, (R)-3-Chloro-2-hydroxy-N-(6-methoxy-1,2,3,4-tetrahydronaphthalen-1-yl)benzamide] displayed a melting point of 111 to 113 °C. Also, the EC50 in series [2] was found to be 0.85 µM.
